Measurements taken from patent US4272528A, “Phosphonoacetyl aminoacids” (Abbott Laboratories, priority 1980, dated 1981).
Like-named read-outs stand apart in the source and are kept apart here.

Target: herpes DNA polymerase (Human herpesvirus 1, UniProt P04293)
Assay: herpes DNA polymerase activity assay
Type: biochemical
Conditions: for % Inhibition at Drug Level 1.666 μg/ml / % Inhibition at Drug Level 16.6 μg/ml / % Inhibition at Drug Level 166 μg/ml: fixed dilution
Protocol: The above compounds were tested for herpes DNA polymerase activity in the manner shown in Example 9 of U.S. Pat. No. 4,138,432. The assay, using fixed dilutions of the above compounds, produced the following results:
When variable solution concentrations were used, the results were as follows: […]

[1] = variable solution concentrations, read-out: ID50 (the source's name) (converted)

herpes DNA polymerase, sequence (P04293 whole entry): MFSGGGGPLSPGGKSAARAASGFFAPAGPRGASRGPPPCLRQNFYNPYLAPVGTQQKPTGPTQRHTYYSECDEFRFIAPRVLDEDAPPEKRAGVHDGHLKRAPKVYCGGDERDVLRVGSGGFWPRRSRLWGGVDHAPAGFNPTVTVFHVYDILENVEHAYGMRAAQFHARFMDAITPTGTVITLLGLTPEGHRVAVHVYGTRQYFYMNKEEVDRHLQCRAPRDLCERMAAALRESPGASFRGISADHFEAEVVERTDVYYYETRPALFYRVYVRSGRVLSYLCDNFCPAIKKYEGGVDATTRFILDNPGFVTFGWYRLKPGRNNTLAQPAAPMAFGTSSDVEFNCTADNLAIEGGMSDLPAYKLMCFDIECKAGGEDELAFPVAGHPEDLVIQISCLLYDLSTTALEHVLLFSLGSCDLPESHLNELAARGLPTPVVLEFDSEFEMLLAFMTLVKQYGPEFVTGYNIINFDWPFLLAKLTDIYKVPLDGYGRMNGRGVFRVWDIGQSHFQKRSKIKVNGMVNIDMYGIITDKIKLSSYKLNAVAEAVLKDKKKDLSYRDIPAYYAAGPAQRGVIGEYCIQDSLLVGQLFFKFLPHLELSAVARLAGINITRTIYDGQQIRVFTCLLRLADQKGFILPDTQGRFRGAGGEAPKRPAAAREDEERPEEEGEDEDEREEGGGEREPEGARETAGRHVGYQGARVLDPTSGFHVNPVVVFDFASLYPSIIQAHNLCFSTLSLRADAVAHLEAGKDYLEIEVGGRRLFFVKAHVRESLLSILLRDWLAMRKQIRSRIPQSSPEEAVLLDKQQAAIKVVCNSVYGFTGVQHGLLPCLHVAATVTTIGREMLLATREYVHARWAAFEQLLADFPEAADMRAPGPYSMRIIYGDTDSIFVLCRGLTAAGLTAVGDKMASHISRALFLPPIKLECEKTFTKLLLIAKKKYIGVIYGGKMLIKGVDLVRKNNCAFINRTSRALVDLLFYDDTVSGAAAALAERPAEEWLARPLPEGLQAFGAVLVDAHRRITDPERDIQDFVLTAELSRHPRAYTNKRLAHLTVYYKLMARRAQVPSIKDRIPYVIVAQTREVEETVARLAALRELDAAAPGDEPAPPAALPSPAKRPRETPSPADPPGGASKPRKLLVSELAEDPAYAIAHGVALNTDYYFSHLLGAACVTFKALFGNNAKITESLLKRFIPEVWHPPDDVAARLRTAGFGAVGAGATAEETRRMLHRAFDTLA

Structure (SMILES)	IC50 [1] [µM]	IC50 [µM]	% Inhibition at Drug Level 1.666 μg/ml [%]	% Inhibition at Drug Level 16.6 μg/ml [%]	% Inhibition at Drug Level 166 μg/ml [%]
N=C(N)NCCCC(NC(=O)CP(=O)(O)O)C(=O)O (stereo not shown) [PAA-Arg, reference compound]	203	–	–	–	–
C[C@@H](NC(=O)CP(=O)(O)O)C(=O)O [Example 2 (D), PAA-D-Ala]	–	31.3	19	68	87
O=C(O)C[C@H](NC(=O)CP(=O)(O)O)C(=O)O [PAA-L-Asp, reference compound]	141	–	–	–	–
C[C@H](NC(=O)CP(=O)(O)O)C(=O)O [Example 2 (L), PAA-L-Ala]	–	–	–	–	59
O=C(O)CC(NC(=O)CNC(=O)CP(=O)(O)O)C(=O)O (stereo not shown) [Example 4, PAA-Gly-Asp]	10.6	–	39	77	93
O=C(O)CCNC(=O)CP(=O)(O)O [Example 3, PAA-β-Ala]	–	50.2	15	59	88
O=C(O)CNC(=O)CP(=O)(O)O [Example 1, PAA-Gly]	–	28.9	33	56	72
O=C(O)CP(=O)(O)O [PAA-Na, reference compound]	–	–	82	98	99
